# Assay results reported in US20050272040A1, “Method for increasing synaptic growth or plasticity” (priority 2002, published 2005).
# System: hippocampal cells
# Assay: Real-time RT-PCR of genes induced by neurotrophin treatment of hippocampal cultures
# Assay type: cell-based, rat
# Details: 50 ng/mL, RT-PCR vs control, average ± standard error
# Description: The molecular genetics underlying BDNF-evoked plasticity were examined by expression profiling using cDNA microarrays on a population of hippocampal cells in vitro. Synaptic effects of BDNF are observed within 20 minutes of exposure (Levine et al. (1996) supra; Lessmann and Heumann (1998) supra; Schinder et al. (2000) supra). A 3-hour BDNF treatment has been used to identify several genes with roles in synaptic plasticity (Thakker-Varia et al. (2001) supra). Consequently, to reveal immediate, as well as downstream transcriptional changes, both acute (20 minutes) and longer treatment (3 hours) with BDNF were used herein. […] Two independent Atlas arrays were performed using RNA from hippocampal cells treated for either 20 minutes or 3 hours of BDNF (50 ng/mL) and control sister cultures.
# Of those genes selected, the regulation of 7% at 20 minutes and 40% at 3 hours were validated, although the magnitude of regulation was not always identical to that observed on the microarray. To focus on genes specifically involved in plasticity, a related neurotrophin, nerve growth factor (NGF), not inducing synaptic plasticity (Levine et al. (1996) supra), served as a control.
# Time-mated pregnant rats were sacrificed by CO2 asphyxiation in accordance with institutional guidelines for care and use of animals. Fetuses were removed by caesarean section and transferred to a sterile petri dish with phosphate-buffered saline. Fetal hippocampi were dissected from surrounding brain tissue and meninges were completely removed. Low-density cultures of dissociated embryonic day 18 rat hippocampi (Sprague Dawley from Hilltop Laboratories, Scottsdale, Pa.) were prepared using standard methods (Thakker-Varia et al. (2001) supra). Briefly, pooled tissue from each litter was mechanically dissociated in nutrient medium containing 7.5% fetal bovine serum and plated on poly-D-lysine-coated culture dishes at 350,000 cells/dish. Cultures were maintained in serum-free medium (Thakker-Varia et al., 2001) for 10-14 days and contained pure neurons.
# Total cellular RNA was prepared from neuronal cultures treated with either BDNF (50 ng/ml) or vehicle (water) for either 20 min or 3 hr by the guanidine isothiocyanate method and CsCl gradients (Thakker-Varia et al., 2001). DNAse-treated total RNA was prepared from neurotrophin or control hippocampal cultures and reverse transcribed using gene specific primers. Radioactively labeled probes were then hybridized to Atlas Arrays Rat 1.2 (Clontech, Palo Alto, Calif.) according to manufacturer's protocol. Arrays were performed in duplicate with an independent source of RNA. The hybridization pattern was analyzed on a phosphorimager and normalized to the global hybridization signal. Analysis was performed by Clontech using 1.7-fold change as criteria for significance. All transcriptional changes were confirmed by real time RT-PCR on independent samples (see below).
# cDNA (100 μl) was prepared from 2 μg control or BDNF-treated RNA using random primers and Superscript II reverse transcriptase. 25 μl PCR reactions were then carried out using gene specific primers designed by Primer Express software and TaqMan MGB probes (Applied Biosystems 7000 Sequence Detection System, Foster City, Calif.). Duplicate wells were included for each condition and primer pair. Primers specific to the housekeeping gene, glyceraldehyde-3-phosphate dehydrogenase (GAPDH) were used as an internal control. Data analysis was performed according to the protocol provided by Applied Biosystems.
substance,measurement,setting,value
"BDNF: neurotrophin, 50 ng/ml, Preprotech; induces synaptic plasticity in hippocampal neurons",Fold Change Arc,3 Hour BDNF Treatment,34.8 ± 4.3 fold
same,Fold Change CyclinD1,3 Hour BDNF Treatment,3.3 ± 0.5 fold
same,Fold Change EGR1,3 Hour BDNF Treatment,6.6 ± 0.9 fold
same,Fold Change Fra2,3 Hour BDNF Treatment,2.3 ± 0.4 fold
same,Fold Change Kv + 1.1,3 Hour BDNF Treatment,1.4 ± 0.1 fold
same,Fold Change Na + ch,3 Hour BDNF Treatment,1.8 ± 0.2 fold
same,Fold Change PTP1B,3 Hour BDNF Treatment,1.4 ± 0.1 fold
same,Fold Change SSTR4,3 Hour BDNF Treatment,1.7 ± 0.1 fold
same,Fold Change SgII,3 Hour BDNF Treatment,5.1 ± 1.2 fold
same,Fold Change VGF,3 Hour BDNF Treatment,6.5 ± 1.5 fold
same,Fold Change c-fos,3 Hour BDNF Treatment,2.3 ± 0.4 fold
same,Fold Change NPY,"3 Hour BDNF Treatment, n = 5",1.9 ± 0.3 fold
same,Fold Change UNC5H2,"3 Hour BDNF Treatment, n = 5",2.2 ± 0.6 fold
same,Fold Change Arc,20 Minute BDNF Treatment,13.7 ± 5.0 fold
same,Fold Change EGR1,20 Minute BDNF Treatment,4.3 ± 0.8 fold
same,Fold Change c-fos,20 Minute BDNF Treatment,2.2 ± 0.4 fold
